Key:
[1] = test system: normal adult male and female human volunteers; test: Overall outcome of the vomeronasal study (sleep, EEG, self-report); assay type: in vivo; conditions: administration to the vomeronasal organ
Method: (§1) 17-Methylenandrost-4-en-3α-ol, 400 pg, or placebo were administered to the vomeronasal organs of normal adult male and female human volunteers using a delivery device which delivered the compound to the opening of the vomeronasal organ in measured quantity (two 2 second “puffs” of a 10^−8 M solution of the active ingredient in propylene glycol, or propylene glycol alone). The study evaluations included objective and subjective evaluations of sleep, a power spectral analysis of the subjects' electroencephalograms, and a pencil-and-paper self-report inventory (ABS-70) of the subjects' effective state.

[2] = test system: norepinephrine and serotonin; test: Neurotransmitter concentrations in blood and metabolites in urine; assay type: in vivo; conditions: relative to placebo, human volunteers
Method: as §1
(§2) 17-Methylenandrost-4-en-3α-ol also reduces plasma concentrations of ACTH and cortisol, and also reduces cortisol concentration in urine. It also increases, relative to placebo, concentrations of the neurotransmitters norepinephrine and serotonin in blood and their metabolites in urine.

[3] = test system: normal adult male and female human volunteers; test: Power spectral analysis of electroencephalograms after vomeronasal administration; assay type: in vivo; conditions: 400 pg to the vomeronasal organ
Method: as §1
Based on this study, 17-methylenandrost-4-en-3α-ol shares antidepressant and stimulant properties with paroxetine and other selective serotonin reuptake inhibitor antidepressants.

[4] = test system: CRH; test: ACTH and cortisol concentrations in plasma and urine (indirect measure of CRH inhibition); assay type: in vivo; conditions: 400 pg to the vomeronasal organ, human volunteers
Method: The compounds of this invention are, when administered to the VNO, CRH inhibitors. Their activity as CRH inhibitors in vivo can be measured directly by measurement of the inhibition of CRH or indirectly by the measurement of other hormones, such as ACTH, and steroids, such as cortisol, associated with CRH, as discussed in the Examples.
as §1, §2

[5] = test system: normal adult male and female human volunteers; test: Sleep evaluation after administration to the vomeronasal organ of normal human volunteers; assay type: in vivo; parameters: key: increase (↑); decrease (↓); no change (=); conditions: 400 pg administered to the VNO before bedtime, normal subjects, males and females combined, change with respect to placebo
Method: as §1
The table below provides a comparison of the results from the study with 17-methylenandrost-4-en-3α-ol with literature reports on the effects of the effects of the marketed antidepressant paroxetine (Paxil®); where changes in sleep variables are indicated as an increase (↑), decrease (↓), or no change (=) with respect to placebo.
Comparative effects of 17-methylenandrost-4-en-3α-ol, 400 pg administered to the VNO, and paroxetine, 30 mg orally, given before bedtime in normal subjects: […]

[6] = test system: normal subjects; parameters: key: increase (↑); decrease (↓); no change (=); conditions: 30 mg orally before bedtime, change with respect to placebo, from Saletu et al. 1991; cited from earlier work

## C=C1CC[C@H]2[C@@H]3CCC4=C[C@H](O)CC[C@]4(C)[C@H]3CC[C@]12C [17-Methylenandrost-4-en-3α-ol]
[1]
  overall study result (sleep, EEG, hormones, neurotransmitters): antidepressant properties
[2]; blood
  concentration of norepinephrine in blood: increases
  concentration of serotonin in blood: increases
[2]; urine
  concentrations of norepinephrine and serotonin metabolites in urine: increases
[3]
  EEG β-wave activity: increased
  EEG θ-wave activity: increased
  δ-frequency activity in stages S3 and S4 non-REM sleep: increase
[4]; plasma
  plasma concentration of ACTH: reduces
  plasma concentration of cortisol: reduces
[4]; urine
  cortisol concentration in urine: reduces
[5]
  REM sleep latency: ↑
  Sleep efficiency: ↓
  Sleep latency: ↑
  Stage 1 sleep time: ↑
  Stage 2 sleep time: ↑
  Stages 3 + 4 sleep time: =
  Total REM sleep time: ↓
  Total sleep time: ↓

## Fc1ccc([C@@H]2CCNC[C@H]2COc2ccc3c(c2)OCO3)cc1 [Paroxetine, paroxetine]
[6]
  REM sleep latency: ↑
  Sleep efficiency: ↓
  Sleep latency: ↑
  Stage 1 sleep time: ↑
  Stage 2 sleep time: =
  Stages 3 + 4 sleep time: =
  Total REM sleep time: ↓
  Total sleep time: ↓
